Data on 1 compound can be found in patent US11369609B2, “Small molecule Wnt inhibitor as treatment for dyslipidemia” (Yale University, priority 2019, dated 2022).

The test system of this assay is canonical Wnt signaling. The experiment in a line: Renal fibrosis in unilateral ureteral obstruction (UUO) mice treated with Wnt inhibitor. In kind it is in vivo. As for the experimental part:
UUO surgery procedure was performed as previously described (44). Briefly, mice were anesthetized with isoflurane (3%-5% for induction and 1%-3% for maintenance). Mice were shaved on the left side of the abdomen, a vertical incision was made through the skin with a scalpel, and the skin was retracted. A second incision was made through the peritoneum to expose the kidney. The left ureter was ligated twice 15 mm below the renal pelvis with surgical silk, and the ureter was then severed between the 2 ligatures. Then, the ligated kidney was placed gently back into its correct anatomical position, and sterile saline was added to replenish loss of fluid. The incisions were sutured and mice were individually caged. Buprenorphine was used as an analgesic. The first dose was administered 30 minutes before surgery and then every 12 h for 72 h, at a dose of 0.05 mg/kg subcutaneously. Mice were sacrificed and kidney and blood samples were harvested after perfusion with PBS at 10 days after UUO. Contralateral kidneys were used as a nonfibrotic control for all experiments using this model.
A point-counting method was utilized to evaluate the relative area of the mesangial matrix. PAS-stained glomeruli from each mouse were analyzed using a digital microscope screen grid containing 540 (27×20) points. Masson's trichrome-stained images were evaluated by ImageJ software, and the fibrotic areas were estimated.
Deparaffinized sections were incubated with picrosirius red solution for 1 hour at room temperature. The slides were washed twice with acetic acid solution for 30 seconds per wash. The slides were then dehydrated in absolute alcohol three times, cleared in xylene, and mounted with a synthetic resin. Sirius red staining was analyzed using ImageJ software, and fibrotic areas were quantified.
Paraffin-embedded kidney sections (5 μm thick) were deparaffinized and rehydrated (2 min in xylene, four times; 1 min in 100% ethanol, twice; 1 min in 95% ethanol; 45 s in 70% ethanol; and 1 min in distilled water), and the antigen was retrieved in a 10 mM citrate buffer pH 6 at 98° C. for 60 min. To block the endogenous peroxidase, all sections were incubated in 0.3% hydrogen peroxide for 10 min. The immunohistochemistry was performed using a Vectastain ABC Kit (Vector Laboratories, Burlingame, Calif.). Mouse anti-[…] antibody (1:100) and CPT1a (Abnova; H00001374-DO1P; 1:100) antibody was used. In the negative controls, the primary antibody was omitted and replaced with the blocking solution.
Frozen kidney sections (5 μm) were used for immunofluorescence; double positive labeling with CD31/αSMA, CD31/TGFβR1 and E-cadherin/αSMA was measured. Briefly, frozen sections were dried and placed in acetone for 10 min at −30° C. Once the sections were dried, they were washed twice in phosphate-buffered saline (PBS) for 5 min and then blocked in 2% bovine serum albumin/PBS for 30 min at room temperature. Thereafter, the sections were incubated in primary antibody (1:100) for 1 hour and washed in PBS (5 min) three times. Next, the sections were incubated with the secondary antibodies for 30 min, washed with PBS three times (5 min each), and mounted with mounting medium with DAPI (Vector Laboratories, Burlingame, Calif.). The immune-labeled sections were analyzed by fluorescence microscopy. For each mouse, original magnification of ×400 pictures were obtained from six different areas, and quantification was performed.
To determine whether inhibition of the Wnt signaling pathway could ameliorate the observed fibrosis, LGK974, a small molecule inhibitor of all secreted Wnts (43), was utilized. FIGS. 21A-21B depict the schematic diagram showing the experimental protocol for LGK974 treatment in diabetic CD-1 and UUO mice.

Consider `Cc1cc(-c2ncc(CC(=O)Nc3ccc(-c4cnccn4)cn3)cc2C)ccn1` [LGK974], for which, where the note is “LGK974 5 mg/kg”, the ECM deposition result is reported as “greatly diminished”, the collagen accumulation result is given as “greatly diminished”, the glomerulosclerosis entry is listed as “greatly diminished” and the relative area fibrosis result is “greatly diminished”. Also, for the setting “kidney CD31-positive cells”, the “endothelial GR level” value was “significantly restored”. Further, the “level of β-catenin” value (kidney immunohistochemistry) was “suppressed”.
